Results taken from US20240277684A1, “BLOCKADE OF CHEMOKINE (C-C MOTIF) RECEPTOR 2 DURING FLUID RESUSCITATION” (University of South Florida, priority 2022, published 2024).
pIC50, pKd: −log10 of the molar value.

Tests used:
hemorrhagic shock [1] = assay: Example 1 first series: 30 min hemorrhagic shock, fluid resuscitation until t=90 min; type: in vivo, rat; conditions: 5.5 μmol/kg Maraviroc at t=30 min, vs vehicle or 1.1 INCB3284
Method: In vivo animal experiments. All procedures were performed in accordance with the National Institutes of Health Guidelines for Use of Laboratory Animals and were approved by the University of South Florida Institutional Animal Care and Use Committeee (IS00008139). Male Sprague-Dawley rats (300-400 g, Envigo, Indianapolis, IN, USA). were anesthetized with 1.7% isoflurane via nose-cone inhalation with the SomnoSuite anesthesia system (Kent Scientific, Torrington, CT, USA). […] The left femoral artery was isolated and cannulated with a 24-gauge peripheral intravenous catheter to allow for blood withdrawal, hemodynamic monitoring, drug administration, and fluid resuscitation. Hemodynamics were continuously monitored with the SurgivetV6400 blood pressure monitor (Med-Electronics, Beltsville, MD, USA), and blood pressures and heart rate were recorded at 1-10 min intervals. All animals were observed over a 10 min period to ensure hemodynamic stability before start of the experiments. All experiments were performed randomized in alternating order. […] Physiol Res 2019; 68(4):675-679; Nassoiy S P, et al., Effects of the Kv7 voltage-activated potassium channel inhibitor linopirdine in rat models of haemorrhagic shock. Clin Exp Pharmacol Physiol 2018; Nassoiy S P, et al., Kv7 voltage-activated potassium channel inhibitors reduce fluid resuscitation requirements after hemorrhagic shock in rats. J Biomed Sci 2017; 24(1):8; Bach H Ht, et al., Proteasome inhibition prolongs survival during lethal hemorrhagic shock in rats. J Trauma Acute Care Surg 2013; 74(2):499-507; Bach H Ht, et al., Chemokine (C-X-C motif) receptor 4 and atypical chemokine receptor 3 regulate vascular alpha(1)-adrenergic receptor function. Mol Med 2014; 20:435-447), with slight modifications. In brief, rats were hemorrhaged to a mean arterial blood pressure (MAP) of less than or equal to 30 mmHg for a period of 30 minutes. At the end of the HS period (t=30 min), animals were injected with either vehicle (1 mL LR) or drug in 1 mL LR, followed by fluid resuscitation with 1 mL bolus injections of LR to maintain a systolic blood pressure (SBP) of 90 mmHg or a MAP of 60 mmHg. To avoid fluid overload, bolus injections of LR were limited to 1 mL/min. […] Animals were then resuscitated until t=90 min. At t=0, 15, 30, 60 and 90 min, blood samples were obtained, and plasma prepared. Samples were stored at -70° C. until further processing. At t=90 min, animals were euthanized (isoflurane inhalation, bilateral pneumothorax).

CCR2 = CCR2 (Homo sapiens, UniProt P41597); conditions: read-out: Kd, binding affinity of CCL2 for CCR2; cited from earlier work
Sequence of CCR2 (P41597 whole entry, species assumed): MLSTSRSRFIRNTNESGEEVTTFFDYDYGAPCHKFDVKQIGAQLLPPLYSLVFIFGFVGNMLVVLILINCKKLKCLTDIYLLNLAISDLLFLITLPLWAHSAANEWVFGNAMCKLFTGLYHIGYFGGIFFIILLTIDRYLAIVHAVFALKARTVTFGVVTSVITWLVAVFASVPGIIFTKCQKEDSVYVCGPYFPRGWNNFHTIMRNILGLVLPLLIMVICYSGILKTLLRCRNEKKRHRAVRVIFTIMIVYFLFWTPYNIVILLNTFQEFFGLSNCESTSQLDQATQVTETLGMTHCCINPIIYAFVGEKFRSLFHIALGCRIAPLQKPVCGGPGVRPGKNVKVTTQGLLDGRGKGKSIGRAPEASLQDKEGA

CCR5 = conditions: cited from earlier work
CCR3 [2] = biological target: T1, CCR3 (Homo sapiens, UniProt P51677); conditions: cited from earlier work
T1 sequence (P51677 1-355): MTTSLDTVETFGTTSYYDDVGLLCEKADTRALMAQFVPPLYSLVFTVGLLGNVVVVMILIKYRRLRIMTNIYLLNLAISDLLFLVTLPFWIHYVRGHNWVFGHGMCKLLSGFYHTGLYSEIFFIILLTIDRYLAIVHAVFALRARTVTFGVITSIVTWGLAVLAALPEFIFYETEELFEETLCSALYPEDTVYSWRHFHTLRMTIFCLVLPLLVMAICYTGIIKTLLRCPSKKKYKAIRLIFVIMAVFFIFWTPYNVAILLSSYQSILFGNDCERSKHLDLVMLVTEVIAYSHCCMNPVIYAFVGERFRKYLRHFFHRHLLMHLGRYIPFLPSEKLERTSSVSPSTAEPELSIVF

CCR3 [3] = biological target: T1, CCR3; conditions: read-out: IC50, CCR3 antagonist; cited from earlier work
severe hemorrhagic shock = assay: Example 2 Series 4: lethal hemorrhage without fluid resuscitation; type: in vivo, rat; conditions: 5 μmol/kg INCB3284 or 1 μmol/kg SB328437 after 40% TBV hemorrhage
Method: (§1) The hemorrhagic shock models were performed as described previously, with slight modifications (DeSantis A J, et al., The Chemokine (C-C Motif) Receptor 2 Antagonist INCB3284 Reduces Fluid Requirements and Protects From Hemodynamic Decompensation During Resuscitation From Hemorrhagic Shock. Crit Care Explor 2022;4(5):e0701; Bach H H, et al., Chemokine (C-X-C motif) receptor 4 and atypical chemokine receptor 3 regulate vascular alpha(1)-adrenergic receptor function. Mol Med 2014; 20:435-47; Nassoiy S P, et al., Effects of the Kv7 voltage activated potassium channel inhibitor linopirdine in rat models of hemorrhagic shock. Clin Exp Pharmacol Physiol 2018. doi: 10.1111/1440-1681.12958. PubMed PMID: 29702725; Bach H H, et al., Proteasome inhibition prolongs survival during lethal hemorrhagic shock in rats. J Trauma Acute Care Surg 2013; 74(2):499-507). In brief, anesthesia induction was performed with the animal and isoflurane-soaked gauze placed in a bell jar. After anesthesia induction, the animals were transferred to the operative field and anesthesia was maintained with 2.7% isoflurane administered via nose-cone inhalation with the SomnoSuite small animal anesthesia system (Kent Scientific Corporation, Torrington, CT, USA). […] Using a direct cut-down technique, the left femoral artery was isolated and cannulated with a 24-gauge peripheral intravenous catheter to allow for blood withdrawal, hemodynamic monitoring, drug administration, and fluid resuscitation. After catheter placement, isoflurane was decreased to 1.5%. Hemodynamics were continuously monitored with the Surgivet invasive blood pressure monitor (Med-Electronics, Beltsville, MD, USA). Blood pressures were recorded at 1-5 min intervals during the hemorrhage and resuscitation periods. Four subsequent series of experiments were performed. All experiments in each series were performed in alternating order. In all experiments animals were continuously monitored and remained under general anesthesia until euthanasia or death, as defined by asystole or loss of pulse pressure.
Series 4: The purpose of these experiments was to determine whether treatment with the chemokine receptor antagonists increases shock tolerance, blood pressure and survival time without additional fluid resuscitation. As such, death is an intentional endpoint. Earlier endpoints are unable to answer these questions and alternatives are not available. Rats were hemorrhaged 40% total blood volume (TBV) within 10 min. At t=15 min, animals were injected with vehicle (1 mL NS, n=3), 5 μmol/kg INCB3284 in 1 mL NS (n=5) or […] SB 328437 in 1 mL NS (n=5). Animals were then hemorrhaged 2% TBV every 5 minutes until death.

hemorrhagic shock [4] = assay: Example 2 Series 2: 60 min hemorrhagic shock, single dose, fluid resuscitation until t=300 min; type: in vivo, rat
Method: as §1
Series 2: Rats were hemorrhaged to a MAP of less than or equal to 30 mmHg for a period of 60 min, followed by fluid resuscitation until t=300 min as in Series 1. At the end of the hemorrhagic shock period (t=60 min), animals were injected with 1 mL of normal saline (NS) (n=6), 5 μmol/kg (n=6) INCB3284 in 1 mL NS or 1.1 μmol/kg SB 328437 (n=6) in 1 mL NS at t=60 min. At t=0 min, 60 min, 120 min, 180 min, 240 min and 300 min, blood samples (0.3 ml) were obtained and used for arterial blood gas analyses and measurements of routine laboratory parameters. At t=300 min, surviving animals were euthanized (5% isoflurane inhalation, bilateral pneumothorax).
Arterial blood gases and routine laboratory parameters. Arterial blood gases, electrolytes, creatinine, lactate, hematocrit and hemoglobin were analyzed using the Element point of care veterinary blood gas, electrolyte and critical care analyzer (Cuattro Veterinary USA, Loveland, CO, USA).

hemorrhagic shock [5] = assay: Example 2 Series 1: 30 min hemorrhagic shock, fluid resuscitation until t=90 min; type: in vivo, rat
Method: as §1
Series 1: To assess the effects of SB328437 treatment after hemorrhagic shock and fluid resuscitation, and to be able to compare findings with the previous study on the effects of CCR2 and CCR5 inhibition, rats were hemorrhaged to a mean arterial blood pressure (MAP) of less than or equal to 30 mmHg for a period of 30 minutes. At the end of the hemorrhagic shock period (t=30 min), animals were injected with either vehicle (1 mL lactated Ringer's solution (LR), n=5), 0.25 μmol/kg SB328437 (n=3) or 1.1 μmol/kg SB328437 (n=3) in 1 mL LR, followed by fluid resuscitation with 1 mL bolus injections of LR to maintain a systolic blood pressure of 90 mm Hg or an MAP of 60 mm Hg until t=90 min, as described. To avoid fluid overload, bolus injections of LR were limited to 1 mL/min. At t=90 min, surviving animals were euthanized (5% isoflurane inhalation, bilateral pneumothorax).

solubility = type: physicochemical

Maraviroc
effect on fluid requirements (hemorrhagic shock [1]): did not affect fluid requirements

CCL2: principal endogenous agonist of chemokine (C-C motif) receptor 2 (CCR2)
pKd (CCR2): ~9.30
binding affinity of CCL2 for CCR5 lower than for CCR2 (CCR5): more than 100 fold
binding affinity of CCL2 for CCR3 lower than for CCR2 (CCR3 [2]): more than 100 fold

COC(=O)[C@H](Cc1ccc([N+](=O)[O-])cc1)NC(=O)c1cccc2ccccc12 [SB328437]
pIC50 (CCR3 [3]): 8.35
MAP during subsequent 2% TBV hemorrhages in 5 min intervals (severe hemorrhagic shock; no fluid resuscitation): indistinguishable among groups
median survival time (severe hemorrhagic shock; not significantly different between groups): 64 min
median survival time (hemorrhagic shock [4]; 1.1 μmol/kg SB328437 or 5 μmol/kg INCB3284 at t=60 min): 290 min
animals that survived the resuscitation period (hemorrhagic shock [4]; 1.1 μmol/kg SB328437 or 5 μmol/kg INCB3284 at t=60 min, until t=300 min, n=6): 3 of 6
fluid requirements (hemorrhagic shock [4]; 1.1 μmol/kg at t=60 min): could not be significantly reduced
MAP during fluid resuscitation (hemorrhagic shock [4]; 1.1 μmol/kg at t=60 min, between t=140-200 min): lower
Fluid requirements to achieve the MAP target vs vehicle (hemorrhagic shock [5]; 0.25 μmol/kg at t=30 min): comparable
MAP vs vehicle treated animals (hemorrhagic shock [5]; 0.25 μmol/kg at t=30 min): indistinguishable
fluid requirements (mean±SE) (hemorrhagic shock [5]; 0.25 μmol/kg at t=30 min, until t=90 min): 53 ± 7 mL/kg
MAP at the end of the resuscitation period (t=80-90 min) (hemorrhagic shock [5]; 1.1 μmol/kg at t=30 min): higher
reduction of fluid requirements (hemorrhagic shock [5]; 1.1 μmol/kg at t=30 min, until t=90 min, vs vehicle): 63±4%
fluid requirements (mean±SE) (hemorrhagic shock [5]; 1.1 μmol/kg at t=30 min, until t=90 min, p<0.05 vs. vehicle): 19.5 ± 2 mL/kg
solubility (solubility): limited
